Data from patent publication US11208408B2, “Method of controlling scale in aqueous systems” (NOURYON CHEMICALS INTERNATIONAL B.V., priority 2019, dated 2021).
Counter-ions that a name gives are not always drawn.

What was measured:
[1] = Fluorescent signal of starting amine, monomers and polymers at pH 7 (Example 22); type: physicochemical; details: 45 ppb of amine or monomer
Procedure: The fluorescent signal for the starting N-(3-dimethylaminopropyl)-4-methoxy-1,8-naphthalilmide, the monomers from Monomer Example 3 and 3a (comparative) and the polymers of Polymer Example 20 (comparative) and Polymer Example 21 were measured at 10 ppm polymer and 45 ppb of N-(3-dimethylaminopropyl)-4-methoxy-1,8-naphthalilmide and monomers at pH 7.

[2] = Fluorescent signal of polymers diluted to 10 ppm at pH 9 (Shimadzu RF-6000 spectro fluorimeter); type: physicochemical; details: non-monomer intermediate at 59 ppb
Procedure: The polymer samples from Polymer Examples 1-4 each were diluted in water to 10 ppm and the pH was adjusted to 9, and the fluorescent signal was determined by excitation of the sample at the excitation wavelengths and measurement at the emission wavelengths as stated in Table 1 using a Shimadzu RF-6000 model spectro fluorimeter.
The fluorescence signal for the polymer of Example 1 at 10 ppm and at pH 9 was measured. Also, the fluorescence intensity of the intermediate N-(3-dimethylaminopropyl)-4-methoxy-1,8-naphthalilmide non-monomer intermediate used to synthesize the monomer used in Example 1 was measured at pH 9 and at 59 ppb. The 59 ppb was used because this is the amount of monomer that would have been present in 10 ppm of polymer.

## 4-methoxy-N-(3-dimethylaminopropyl)-1,8-naphthalimide, 2-hydroxy-3-allyloxy propyl, quaternary salt [Monomer Example 3a, reference compound]
[1]
  Emission wavelength λ: 460 nm
  Excitation wavelength λ: 376 nm
  Fluorescence intensity: 8312

## C=CCOCC(O)C[N+](C)(C)CCCN1C(=O)c2cccc3c(OC)ccc(c23)C1=O (stereo not drawn) [Monomer Example 3, 4-methoxy-N-(3-dimethylaminopropyl)-1,8-naphthalimide, 1 or 2-hydroxy-3-allyloxy propyl, quaternary salt]
[1]
  Emission wavelength λ: 460 nm
  Excitation wavelength λ: 376 nm
  Fluorescence intensity: 6774

## COc1ccc2c3c(cccc13)C(=O)N(CCCN(C)C)C2=O [N-(3-dimethylaminopropyl)-4-methoxy-1,8-naphthalimide]
[2]
  Emission wavelength λ: 462 nm
  Excitation wavelength λ: 376 nm
  Fluorescence intensity: 7788
[1]
  Emission wavelength λ: 460 nm
  Excitation wavelength λ: 376 nm
  Fluorescence intensity: 9850
